pIC50: −log10 of the molar value. Values joined by “and” are separate entries in the source; they are usually repeats but may differ in a detail not shown here. Equal values may be shown once.
Biological target: T1, AXL (human catalytic domain) (Homo sapiens, UniProt P30530)
T1 construct: purchased Upstate Ltd. 14-512
T1 sequence (P30530 473-894): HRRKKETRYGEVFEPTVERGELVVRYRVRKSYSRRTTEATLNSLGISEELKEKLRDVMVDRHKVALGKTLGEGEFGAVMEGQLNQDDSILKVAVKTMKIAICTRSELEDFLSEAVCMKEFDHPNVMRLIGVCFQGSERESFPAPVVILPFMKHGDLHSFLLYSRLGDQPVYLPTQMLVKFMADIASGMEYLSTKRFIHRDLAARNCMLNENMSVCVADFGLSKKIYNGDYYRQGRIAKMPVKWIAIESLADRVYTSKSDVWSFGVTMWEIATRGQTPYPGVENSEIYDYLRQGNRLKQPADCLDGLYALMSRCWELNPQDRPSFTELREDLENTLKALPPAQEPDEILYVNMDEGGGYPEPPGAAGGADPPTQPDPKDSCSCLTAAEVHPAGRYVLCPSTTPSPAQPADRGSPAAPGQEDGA
Test: AXL (human catalytic domain) Enzyme Activity Assay (IMAP fluorescence polarisation)
Type: biochemical
Description: Biological Methods AXL (human catalytic domain) Enzyme Activity Assay Reagents
Kinase Assay Reaction Buffer: This consisted of 20 mM HEPES pH 7.0, 10 mM MgCl2, 1 mM DTT, […], 0.01% Triton X100 (v/v), and 0.01% BSA (w/v). All buffer components were purchased from Sigma-Aldrich at reagent grade or higher.
Kinase: Recombinant AXL isoform 1 (aa473-894 corresponding to Genbank Accession Number NP 068713) at 2 mg/mL (20.8 μM) was purchased from Upstate Ltd. (Product code 14-512, lot #28164U). The enzyme was stored at −80° C. and a working stock was prepared to a concentration of 30 nM by diluting 20.8 μM stock 1:693 in cold (4° C.) 1× Reaction Buffer. Final enzyme concentration in the assay was 15 nM.
Substrate: Fluorescein labelled CSK-tide 5FAM-[…]-NH2 was obtained from Molecular Devices (Product code R7270) and used at a working concentration of 200 nM by diluting the 100 μM stock 1:500 in 1× Reaction Buffer in a mix with the enzyme. A negative control (lacking enzyme) was prepared at the same concentrations. Final substrate concentration in the assay was 100 nM.
ATP: Supplied by Sigma (product code A-7699). A 100 mM ATP stock was prepared in […] and used at a working concentration of 375 μM by diluting the 100 mM stock 1:266.6 in Reaction Buffer. Final ATP concentration in the assay was 150 μM; this concentration represents the KM.ATP for this enzyme calculated in this assay.
IMAP Reagents: IMAP screening express kit was obtained from Molecular Devices (product code R8127). The binding reagent was gently re-suspended before diluting by 1:1000 in buffer (Binding Buffer is supplied as a 5× stock and so was diluted with water prior to use—this assay used 40% buffer A and 60% buffer B) and then vortexed before addition to wells. The binding reagent was used at a final dilution of 1:1333.
1 μL samples of test compounds in 10% DMSO/water were added to “test” wells by dry-spotting using a Matrix Platemate Plus. 5 μL Kinase/Substrate in Reaction Buffer were added to columns 1-22 of a Corning black low binding 384 well #6754 (90 μL volume) microplate to give 12 nM and 100 nM reaction concentration respectively. 5 μL substrate in Reaction Buffer was added to columns 23 and 24 to give 100 nM reaction concentration. 4 μL ATP in Reaction Buffer was added to all wells to give 150 μM reaction concentration. The reaction mixture was then incubated at room temperature for 60 minutes. The incubation period was followed by the addition of 20 μL IMAP Binding Reagent in Binding Buffer to all wells. The IMAP reaction detection was further incubated at room temperature overnight. The FP on a Tecan Ultra Plate reader was recorded as a single read at Ex485 Em535.
Percentage inhibition was calculated based on activity of the test sample minus the average values in the blank wells relative to the average values measured in control wells minus the average values in the blank wells.
IC50 values were calculated from 10 point dose sigmoid ‘dose-response’ curves using XIfit software (IDBS Inc, USA). Data were fitted to a 4 parameter logistic model/sigmoidal dose response defined by the following equation:
[formula] where: • A=fit minimum (locked to 0); • B=fit maximum (locked to 100); • C=fit midpoint (pre-fit to 1); and • D=slope at linear portion of curve, hillslope (pre-fit to 0.1).
The value for C represents the IC50 of the test compound.

[1] = first data set, recombinant AXL isoform 1 aa473-894, 150 μM ATP
[2] = further data set (WW-001 through WW-169, XX-001 through XX-469, YY-001 through YY-016, ZZ-001 through ZZ-003), 150 μM ATP

SMILES | pIC50 [1] | pIC50 [2]
COc1ccc(-c2cccc3nc(Nc4ccc(OCCNCc5ccccc5)cc4)nn23)cc1 | > 6.00 and 6.94 | 5.00 to 6.00
O=C(Nc1nc2cccc(-c3ccccc3)n2n1)C1CC1 [WW-001, Cyclopropanecarboxylic acid (5-phenyl-[1,2,4]triazolo[1,5-a]pyridin-2-yl)-amide] | > 6.00 | 6.00 to 7.00
CC(=O)Nc1cccc(-c2cccc3nc(NC(=O)C4CC4)nn23)c1 [WW-002, Cyclopropanecarboxylic acid [5-(3-acetylamino-phenyl)-[1,2,4]triazolo [1,5-a]pyridin-2-yl]-amide] | 5.00 to 6.00 | 5.00 to 6.00
CN1CCN(c2ccc(-c3cccc4nc(NC(=O)C5CC5)nn34)cc2)CC1 [WW-003, Cyclopropanecarboxylic acid {5-[4-(4-methyl-piperazin-1-yl)-phenyl]-[1,2,4]triazolo [1,5-a]pyridin-2-yl}-amide] | 5.00 to 6.00 | 5.00 to 6.00
O=C(Nc1nc2cccc(-c3cccc(Cl)c3)n2n1)C1CC1 [WW-004, Cyclopropanecarboxylic acid [5-(3-chloro-phenyl)-[1,2,4]triazolo[1,5-a]pyridin-2-yl]-amide] | 5.00 to 6.00 | 5.00 to 6.00
COc1ccc(-c2cccc3nc(NC(=O)C4CC4)nn23)cc1 [WW-005, cyclopropanecarboxylic acid [5-(4-methoxy-phenyl)-[1,2,4]triazolo[1,5-a]pyridin-2-yl]-amide] | > 6.00 | 6.00 to 7.00
COc1ccc(-c2cccc3nc(NC(=O)C4CC4)nn23)cn1 [WW-006, Cyclopropanecarboxylic acid [5-(6-methoxy-pyridin-3-yl)-[1,2,4]triazolo[1,5-a]pyridin-2-yl]-amide] | 5.00 to 6.00 | 5.00 to 6.00
O=C(Nc1nc2cccc(-c3cccc(F)c3)n2n1)C1CC1 [WW-007, Cyclopropanecarboxylic acid [5-(3-fIuoro-phenyl)-[1,2,4]triazolo[1,5-a]pyridin-2-yl]-amide] | 5.00 to 6.00 | 5.00 to 6.00
Cc1cc(-c2cccc3nc(NC(=O)C4CC4)nn23)cc(C)c1O [WW-008, Cyclopropanecarboxylic acid [5-(4-hydroxy-3,5-dimethyl-phenyl)-[1,2,4]triazolo[1,5-a]pyridin-2-yl]-amide] | 5.00 to 6.00 | 5.00 to 6.00
CN(C)CCNC(=O)c1ccc(-c2cccc3nc(NC(=O)C4CC4)nn23)cc1 [WW-009, 4-[2-(Cyclopropanecarbonyl-amino)-[1,2,4]triazolo[1,5-a]pyridin-5-yl]-N-(2-dimethylamino-ethyl)-benzamide] | 5.00 to 6.00 | 5.00 to 6.00
COc1ccc(-c2cccc3nc(NC(=O)C4CC4)nn23)c(OC)c1 [WW-010, Cyclopropanecarboxylic acid [5-(2,4-dimethoxy-phenyl)-[1,2,4]triazolo[1,5-a]pyridin-2-yl]-amide] | 5.00 to 6.00 | 5.00 to 6.00
CS(=O)(=O)Nc1cccc(-c2cccc3nc(NC(=O)C4CC4)nn23)c1 [WW-011, Cyclopropanecarboxylic acid [5-(3-methanesulfonylamino-phenyl)-[1,2,4]triazolo[1,5-a]pyridin-2-yl]-amide] | 5.00 to 6.00 | 5.00 to 6.00
O=C(Nc1nc2cccc(-c3ccc(F)cc3)n2n1)C1CC1 [WW-013] | 5.00 to 6.00 | 5.00 to 6.00
CS(=O)(=O)c1ccc(-c2cccc3nc(NC(=O)C4CC4)nn23)cc1 [WW-014] | 5.00 to 6.00 | 5.00 to 6.00
NC(=O)c1cccc(-c2cccc3nc(NC(=O)C4CC4)nn23)c1 [WW-015] | 5.00 to 6.00 | 5.00 to 6.00
COCc1ccc(-c2cccc3nc(NC(=O)C4CC4)nn23)cc1 [WW-016] | 5.00 to 6.00 | 5.00 to 6.00
CS(=O)(=O)Nc1ccc(-c2cccc3nc(NC(=O)C4CC4)nn23)cc1 [WW-017] | 5.00 to 6.00 | 5.00 to 6.00
O=C(Nc1nc2cccc(-c3ccc4[nH]ccc4c3)n2n1)C1CC1 [WW-018] | > 6.00 | 6.00 to 7.00
NC(=O)c1ccc(-c2cccc3nc(NC(=O)C4CC4)nn23)cc1 [WW-019] | 5.00 to 6.00 | 5.00 to 6.00
O=C(Nc1nc2cccc(-c3cccc(O)c3)n2n1)C1CC1 [WW-020] | 5.00 to 6.00 | 5.00 to 6.00
O=C(Nc1nc2cccc(-c3ccc(O)cc3)n2n1)C1CC1 [WW-022, cyclopropanecarboxylic acid [5-(4-hydroxy-phenyl)-[1,2,4]triazolo[1,5-a]pyridin-2-yl]-amide] | > 6.00 | 6.00 to 7.00

SMILES | pIC50 [1] | pIC50 [2]
O=C(Nc1nc2cccc(-c3ccc(Cl)cc3)n2n1)C1CC1 [WW-023] | 5.00 to 6.00 | 5.00 to 6.00
COc1cccc(-c2cccc3nc(NC(=O)C4CC4)nn23)c1 [WW-024] | 5.00 to 6.00 | 5.00 to 6.00
O=C(Nc1nc2cccc(-c3ccccc3F)n2n1)C1CC1 [WW-025] | 5.00 to 6.00 | 5.00 to 6.00
O=C(Nc1nc2cccc(-c3ccc(N4CCOCC4)cc3)n2n1)C1CC1 [WW-026] | > 6.00 | 6.00 to 7.00
O=C(Nc1nc2cccc(-c3ccc(CO)cc3)n2n1)C1CC1 [WW-027] | 5.00 to 6.00 | 5.00 to 6.00
O=C(Nc1nc2cccc(-c3cccc(CO)c3)n2n1)C1CC1 [WW-028] | 5.00 to 6.00 | 5.00 to 6.00
CN(C)C(=O)c1ccc(-c2cccc3nc(NC(=O)C4CC4)nn23)cc1 [WW-029] | 5.00 to 6.00 | 5.00 to 6.00
O=C(Nc1nc2cccc(-c3ccnc(F)c3)n2n1)C1CC1 [WW-030] | 5.00 to 6.00 | 5.00 to 6.00
O=C(Nc1nc2cccc(-c3ccc(C(F)(F)F)cc3)n2n1)C1CC1 [WW-031] | 5.00 to 6.00 | 5.00 to 6.00
O=C(Nc1nc2cccc(-c3cccc(C(F)(F)F)c3)n2n1)C1CC1 [WW-033] | 5.00 to 6.00 | 5.00 to 6.00
Cc1cccc(-c2cccc3nc(NC(=O)C4CC4)nn23)c1 [WW-034] | 5.00 to 6.00 | 5.00 to 6.00
CCOc1ccc(-c2cccc3nc(NC(=O)C4CC4)nn23)cc1 [WW-035] | > 6.00 | 6.00 to 7.00
CN(C)c1ccc(-c2cccc3nc(NC(=O)C4CC4)nn23)cn1 [WW-036] | 5.00 to 6.00 | 5.00 to 6.00
O=C(Nc1nc2cccc(-c3ccccc3O)n2n1)C1CC1 [WW-037] | 5.00 to 6.00 | 5.00 to 6.00
COc1ccc(-c2cccc3nc(NC(=O)CC4CC4)nn23)cc1 [WW-038] | 5.00 to 6.00 | 5.00 to 6.00
COc1ccc(-c2cccc3nc(NC(C)=O)nn23)cc1 [WW-039] | 5.00 to 6.00 | 5.00 to 6.00
CCC(=O)Nc1nc2cccc(-c3ccc(OC)cc3)n2n1 [WW-040] | 5.00 to 6.00 | 5.00 to 6.00
COCC(=O)Nc1nc2cccc(-c3ccc(OC)cc3)n2n1 [WW-041] | 5.00 to 6.00 | 5.00 to 6.00
COc1ccc(-c2cccc3nc(NC(=O)C4CCC4)nn23)cc1 [WW-042] | 5.00 to 6.00 | 5.00 to 6.00
COc1ccc(-c2cccc3nc(NC(=O)CC(C)C)nn23)cc1 [WW-043] | 5.00 to 6.00 | 5.00 to 6.00
COc1ccc(-c2cccc3nc(NC(=O)C4CCCC4)nn23)cc1 [WW-046] | 5.00 to 6.00 | 5.00 to 6.00
